Results from patent US10730922B2, “Composition and method for affecting the binding of antigen-binding polypeptides to antigens” (Miltenyi Biotec GmbH, priority 2016, dated 2020).

Legend:
Assay type in all cases: binding, human
CD14 = assay: Competitive staining of PBMC with anti-CD14 scFv-CaM-fusions, flow cytometry; details: peptide in molar excess, FIG. 7A
Description: (§1) To investigate whether the linkers identified to provide modulation of binding in scFv D1.3 can be used as a “universal” module to change binding properties in other scFv fragments than D1.3, the characterized CaM-linker variants were cloned into other scFv antibodies with different specificities. The specificities were chosen according to their utility in future cell staining and separation applications, with two scFvs directed against different human clusters of differentiation (CD14, CD4) and the small hapten biotin. To identify M13 peptide-dependent scFv-CaM-variants for those specificities, human blood cells (PBMC) were stained using purified scFvs and subsequently analysed by flow cytometry. Bound scFvs were detected with fluorescently labeled anti-His-antibodies.
(§2) The production and purification of different scFv-fusions was performed as described in Example 3. All antibodies and staining reagents used for flow cytometry applications were from Miltenyi Biotec (Bergisch Gladbach, Germany). For stainings with anti-Biotin scFv-variants, PBMC (peripheral blood mononuclear cells) were prestained with appropriate IgG-conjugates. The stainings were performed in 1.5 mL microtubes. 1×10^6 PBMC per sample were incubated on ice for 10 min in 110 μL 1×B-TBS (1×TBS+0.5% [w/v] bovine serum albumin)+5 mM CaCl2 (pH 7.4) containing anti-CD14-Biotin (dilution: 1:11). The reaction was stopped by addition of 1 mL buffer and centrifugation at 300 g for 5 min at 4° C. The supernatant was removed completely and the pellet was stored on ice and resuspended in buffer immediately before the next staining step. The following stainings were performed in 96-well polypropylene plates. Purified scFvs were diluted to appropriate concentrations in 50 μL 1×B-TBS/5 mM CaCl2 (pH 7.4 [anti-Biotin] or pH 8.0 [anti-CD14, anti-CD4]) per well. For competitive screenings, peptide (M13 peptide [Anaspec, Fremont, USA], M13-variants library and CBP (calmodulin-binding peptide) library [Genscript, Piscataway, USA]) was added in molar excess in a total volume of 5 μL per well, whereas the control stainings were supplied with 5 μL 1×B-TBS/5 mM CaCl2. The diluted scFvs were preincubated for 45 min at RT and afterwards chilled on ice for 5 min. […]
(§3) Calmodulin binds to a variety of binding partners. […] On the one hand, 38 mutated variants of the M13 peptide were analysed, e.g. substitution mutants known to have higher affinities for calmodulin, truncated variants and combinations thereof. In addition, 29 peptides derived from further calmodulin-binding proteins like calcium ATPase, spectrin and nitric oxidase synthase were analysed with regard to potential binding modulating properties. […]

CD4 = assay: Competitive staining of PBMC with anti-CD4 scFv-CaM-fusions, flow cytometry; details: FIG. 7C
Description: as §1, §2, §3

[1] = Competitive staining of anti-CD14-Biotin prestained PBMC with anti-Biotin scFv-CaM-fusions, flow cytometry; details: opposite relative to M13 peptide, FIG. 7B
Description: as §1
The production and purification of different scFv-fusions was performed as described in Example 3. […]
as §3

CBP-Var8: calmodulin-binding peptide, a derivative of spectrin (KTASPWKSARLMVHTVATFNSIKE; CBP-Var8; peptide from protein of Homo sapiens)
signal change compared to M13 peptide, anti-CD14 scFv C-terminally permutated and linear variant (CD14): slightly higher decrease

M13 peptide: calmodulin-binding peptide M13 (residues 577-602 of skeletal muscle myosin light chain kinase) [reference compound]
change in binding signal, linear anti-CD4 scFv clone (CD4): did not have any influence at all
change in binding signal, C-terminally permutated clones of anti-CD4 scFv (CD4; peptide in molar excess, 'the same effect' refers to further increase in fluorescence intensity): increase in binding signal

CBP-Var10: derived from ionotropic glutamate receptor NMDA1 (KKKATFRAITSTLASSFKRRRSSK; CBP-Var10; peptide from protein of Homo sapiens)
change in binding signal, linear anti-CD4 scFv clone (CD4): unexpected decrease in binding signal

M13-Var7: variant of the known high affinity mutant of M13 (RWKKAFIAVSAANRFKKI; M13-Var7)
signal change compared to M13 peptide, anti-CD14 scFv clones permutated in the middle of CaM and linear clone (CD14): higher signal decrease

M13-Var6: variant of the known high affinity mutant of M13 (WKKAFIAVSAANRFKKIS; M13-Var6)
signal change compared to M13 peptide, anti-CD14 scFv clones permutated in the middle of CaM and linear clone (CD14): higher signal decrease

M13-Var5: variant of the known high affinity mutant of M13 (RWKKAFIAVSAANRFKKIS; M13-Var5)
signal change compared to M13 peptide, anti-CD14 scFv clones permutated in the middle of CaM and linear clone (CD14): higher signal decrease

CBP-Var6: another derivative of calcium-transporting ATPase (RGQILWFRGLNRIQTQIKVVNAFS; CBP-Var6; peptide derived from protein of Gallus gallus)
switching behaviour, anti-Biotin scFv-CaM-fusions M-1, M-2 [1]: opposite switching behaviour
change in fluorescence intensity, anti-CD4 scFv M-variants (CD4; relative to M13 peptide): further increase in fluorescence intensity
